# According to patent publication US9365551B2, “2-(benzyloxy) benzamides as LRRK2 kinase inhibitors” (Glaxo Group Limited, priority 2010, dated 2016):
# Assays:
# [1] = biological target: T1, 6His-Tev-LRRK2 (1326-2527) (Homo sapiens, UniProt Q5S007); assay: LRRK2 peptide substrate assay; format: biochemical; details: mean pIC50 of multiple test results
# T1 construct: A LRRK2 cDNA encoding residues 1326-2527 was received from Dundee University; made in house; host or cells: Spodoptera frugiperda (Sf9) insect cells, baculovirus (pFB-HTb)
# T1 sequence (Q5S007 1326-2527): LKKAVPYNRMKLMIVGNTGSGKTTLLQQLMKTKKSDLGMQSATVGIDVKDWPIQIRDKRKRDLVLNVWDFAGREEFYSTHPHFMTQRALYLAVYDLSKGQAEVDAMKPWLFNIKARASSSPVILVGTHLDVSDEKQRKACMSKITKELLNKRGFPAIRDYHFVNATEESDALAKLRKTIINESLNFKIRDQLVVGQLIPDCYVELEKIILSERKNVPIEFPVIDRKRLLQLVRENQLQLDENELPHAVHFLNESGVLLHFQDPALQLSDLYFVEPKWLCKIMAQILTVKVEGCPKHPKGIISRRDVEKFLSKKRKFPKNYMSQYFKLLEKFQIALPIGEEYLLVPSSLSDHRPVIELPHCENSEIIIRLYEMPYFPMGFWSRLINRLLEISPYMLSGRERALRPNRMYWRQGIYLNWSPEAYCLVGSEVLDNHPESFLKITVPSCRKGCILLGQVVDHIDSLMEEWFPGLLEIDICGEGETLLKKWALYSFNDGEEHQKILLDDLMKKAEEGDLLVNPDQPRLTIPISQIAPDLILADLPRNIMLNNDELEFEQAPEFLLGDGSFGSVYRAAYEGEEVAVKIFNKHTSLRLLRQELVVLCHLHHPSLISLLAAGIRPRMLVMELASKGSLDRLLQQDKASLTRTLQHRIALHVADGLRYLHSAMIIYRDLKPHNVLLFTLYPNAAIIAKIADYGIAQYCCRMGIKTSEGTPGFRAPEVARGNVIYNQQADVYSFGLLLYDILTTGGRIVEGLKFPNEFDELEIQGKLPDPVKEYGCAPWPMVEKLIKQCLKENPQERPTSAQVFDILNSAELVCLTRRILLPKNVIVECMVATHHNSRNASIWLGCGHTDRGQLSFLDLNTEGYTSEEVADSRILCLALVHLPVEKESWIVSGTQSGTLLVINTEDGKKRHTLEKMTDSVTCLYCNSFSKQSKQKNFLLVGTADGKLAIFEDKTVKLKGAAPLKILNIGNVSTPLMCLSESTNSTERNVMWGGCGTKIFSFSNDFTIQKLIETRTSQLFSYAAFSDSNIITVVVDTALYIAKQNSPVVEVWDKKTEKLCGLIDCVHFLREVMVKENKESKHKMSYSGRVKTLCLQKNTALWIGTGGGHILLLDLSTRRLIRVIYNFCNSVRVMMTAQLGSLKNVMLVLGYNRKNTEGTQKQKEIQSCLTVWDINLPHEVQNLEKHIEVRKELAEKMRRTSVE
# Procedure: (§1) Compounds of formula (I) may be tested for in vitro kinase activity in accordance with the following assays, using the non natural, in vitro, substrates moesin and the Longer Biotin-LRRKtide. Moesin and a shorter version of the peptide were identified as substrates in Jaleel et al. (2007, Biochem J, 405: 307-317).
# LRRK2 Peptide Substrate Assay
# a) 100 nl of a 1:4 serial dilution of test compound with a top final assay concentration of 30 μM is added to certain wells in a low volume 384 well black plate. 100 nl of DMSO is used in certain wells as controls.
# (§2) b) 3 μl enzyme solution (80 nM purified recombinant 6His-Tev-LRRK2 (1326-2527) in assay buffer: 50 mM Hepes (pH 7.2), 10 mM MgCl2, 150 mM NaCl, 5% glycerol, 0.0025% triton X-100 and 1 mM DTT) is added to certain wells. 3 μl assay buffer is added to certain wells as a 100% inhibition (no enzyme) control. c) After incubation at room temperature for 30 minutes, 3 μl substrate solution (2 μM Biotin-LRRKtide peptide substrate and ATP at Km in assay buffer) is added to each well. Plates are then incubated for a further 1-2 hours at room temperature (incubation time varies depending upon rate and linearity of reaction with differing enzyme batches). d) 6 μl detection solution (50 nM Streptavidin SureLight® APC (PerkinElmer), 4 nM Eu-W1024 labelled anti-rabbit IgG antibody (PerkinElmer), 1:500 dilution (dilution determined on a batch to batch basis) of Phospho-Ezrin (Thr567)/Radixin (Thr564)/Moesin (Thr558) Polyclonal Antibody (New England Biolabs) and 60 mM EDTA in buffer: 40 mM Hepes (pH 7.2), 150 mM NaCl, 0.03% BSA) is added to each well. Plates are then incubated for a further 2 hours at room temperature before reading on a suitable plate reader (Excitation 330 nm, emission 620 nm (Eu) and 665 nm (APC)). Data is analysed using ActivityBase software (IDBS). LRRK2 AlphaScreen Desensitised Protein Substrate Assay a) 100 nl of a 1:4 serial dilution of test compound with a top final assay concentration of 30 μM is added to certain wells in a low volume 384 well black plate. 100 nl of DMSO is used in certain wells as controls. b) 3 μl enzyme solution (80 nM purified recombinant 6His-Tev-LRRK2 (1326-2527) in assay buffer: 50 mM Hepes (pH 7.2), 10 mM MgCl2, 150 mM NaCl, 5% glycerol, 0.0025% triton X-100 and 1 mM DTT) is added to certain wells. 3 μl assay buffer is added to certain wells as a 100% inhibition (no enzyme) control. c) After incubation at room temperature for 30 minutes, 3 μl substrate solution (200 nM GST-PS-Moesin (400-577) and 2 mM ATP in assay buffer) is added to each well. Plates are then incubated for 20 minutes at room temperature. d) 6 μl detection solution (1:250 dilution of AlphaLisa Protein A Acceptor beads (PerkinElmer), 1:64 dilution of AlphaLisa Gluthathione Donor beads (PerkinElmer) and 1:600 dilution (dilution determined on a batch to batch basis) of Phospho-Ezrin (Thr567)/Radixin (Thr564)/Moesin (Thr558) Polyclonal Antibody (New England Biolabs) in a buffer: 50 mM Hepes (pH 7.5), 250 mM NaCl, 60 mM EDTA, 1% PEG and 0.01% Brij 35) is added to each well. Plates are then incubated for a further 2 hours at room temperature in the dark before reading on an EnVision™ plate reader with AlphaScreen HTS turbo option module and AlphaScreen settings. Data is analysed using ActivityBase software (IDBS). Pharmacological Data
# [2] = biological target: T1, 6His-Tev-LRRK2 (1326-2527); assay: LRRK2 AlphaScreen desensitised protein substrate assay; format: biochemical; details: mean pIC50 of multiple test results
# Procedure: as §1, §2
# [3] = Biotin-LRRKtide peptide substrate, ATP at Km, read-out: LRRK2 peptide substrate assay (pIC50) (converted)
# [4] = stated as threshold, read-out: pIC50 in the LRRK2 peptide substrate assay (bounds) (converted)
# [5] = GST-PS-Moesin (400-577) substrate, 2 mM ATP, read-out: LRRK2 alphascreen desensitized protein substrate assay (pIC50) (converted)
# [6] = stated as threshold, read-out: pIC50 in the LRRK2 alphascreen desensitised protein substrate assay (bounds) (converted)
SMILES,"IC50 [1, 3] [nM]","IC50 [1, 4] [nM]","IC50 [2, 5] [nM]","IC50 [2, 6] [nM]"
"O=C(Nc1cccnc1)c1cc(Cl)c(C(=O)N2CCC(F)(F)C2)cc1OCc1ccccc1 [Example 41, 5-Chloro-4-[(3,3-difluoro-1-pyrrolidinyl)carbonyl]-2-[(phenylmethyl)oxy]-N-3-pyridinylbenzamide]",–,≤ 100,–,≤ 316
"O=C(Nc1ccnnc1)c1cc(Cl)c(C(=O)N2CCC(F)(F)C2)cc1OCc1ccccc1 [Example 42, 5-Chloro-4-[(3,3-difluoro-1-pyrrolidinyl)carbonyl]-2-[(phenylmethyl)oxy]-N-4-pyridazinylbenzamide]",50.1,≤ 100,501,≤ 25100
"Cc1nocc1NC(=O)c1cc(Cl)c(C(=O)N2CCC(F)(F)C2)cc1OCc1ccccc1 [Example 43, 5-Chloro-4-[(3,3-difluoro-1-pyrrolidinyl)carbonyl]-N-(3-methyl-4-isoxazolyl)-2-[(phenylmethyl)oxy]benzamide]",–,≤ 100,–,≤ 25100
"O=C(Nc1cccnc1)c1cc(Cl)c(C(=O)N2CCOCC2)cc1OCc1ccccc1 [Example 44, 5-Chloro-4-(4-morpholinylcarbonyl)-2-[(phenylmethyl)oxy]-N-3-pyridinylbenzamide]",31.6,≤ 100,158,≤ 316
"O=C(Nc1cccc(Cl)c1)c1cc(Cl)c(C(=O)N2CCOCC2)cc1OCc1ccccc1 [Example 45, 5-Chloro-N-(3-chlorophenyl)-4-(4-morpholinylcarbonyl)-2-[(phenylmethyl)oxy]benzamide]",–,≤ 10,–,≤ 316
"Cn1cc(-c2cc(C(=O)Nc3cccc(F)c3)c(OCc3ccc(F)cc3)cc2C(=O)N2CCOCC2)cn1 [Example 47, 2-((4-fluorobenzyl)oxy)-N-(3-fluorophenyl)-5-(1-methyl-1H-pyrazol-4-yl)-4-(morpholine-4-carbonyl)benzamide]",10,≤ 10,126,≤ 316
"Cn1cc(-c2cc(C(=O)Nc3cccc(Cl)c3)c(OCc3ccc(F)cc3)cc2C(=O)N2CCOCC2)cn1 [Example 48, N-(3-chlorophenyl)-2-((4-fluorobenzyl)oxy)-5-(1-methyl-1H-pyrazol-4-yl)-4-(morpholine-4-carbonyl)benzamide]",6.31,≤ 10,15.8,≤ 316
"Cn1cc(-c2cc(C(=O)Nc3cccc(Cl)c3)c(OCc3ccccc3)cc2CN2CCOCC2)cn1 [Example 49, 2-(benzyloxy)-N-(3-chlorophenyl)-5-(1-methyl-1H-pyrazol-4-yl)-4-(morpholinomethyl)benzamide]",–,≤ 100,–,> 25100
"O=C(Nc1cccc(Cl)c1)c1cc(C(F)(F)F)c(CN2CCOCC2)cc1OCc1ccccc1 [Example 52, 2-(Benzyloxy)-N-(3-chlorophenyl)-4-(morpholinomethyl)-5-(trifluoromethyl)benzamide]",–,≤ 1260,–,> 25100
"O=C(Nc1cccc(F)c1)c1cc(C(F)(F)F)c(CN2CCOCC2)cc1OCc1ccccc1 [Example 53, 2-(Benzyloxy)-N-(3-fluorophenyl)-4-(morpholinomethyl)-5-(trifluoromethyl)benzamide]",–,≤ 10,–,> 25100
"CN1CCN(C(=O)c2cc(OCc3ccccc3)c(C(=O)Nc3ccnnc3)cc2Cl)CC1 [Example 55, 2-(benzyloxy)-5-chloro-4-(4-methylpiperazine-1-carbonyl)-N-(pyridazin-4-yl)benzamide]",–,≤ 100,–,≤ 316

# Further lines, with some results ahead:
"IC50 [1, 3] [nM]","IC50 [1, 4] [nM]",SMILES,"IC50 [2, 5] [nM]","IC50 [2, 6] [nM]"
39.8,≤ 100,"O=C(Nc1cccnc1)c1cc(C(F)(F)F)c(C(=O)N2CCOCC2)cc1OCc1ccccc1 [Example 37, 4-(4-Morpholinylcarbonyl)-2-[(phenylmethyl)oxy]-N-3-pyridinyl-5-(trifluoromethyl)benzamide]",794,≤ 25100
–,≤ 1260,"O=C(Nc1ccnnc1)c1cc(C(F)(F)F)c(C(=O)N2CCOCC2)cc1OCc1ccccc1 [Example 38, 4-(4-Morpholinylcarbonyl)-2-[(phenylmethyl)oxy]-N-4-pyridazinyl-5-(trifluoromethyl)benzamide]",–,≤ 25100
15.8,≤ 100,"O=C(Nc1cccnc1)c1cc(C(F)(F)F)c(C(=O)N2CCCCC2)cc1OCc1ccccc1 [Example 39, 2-[(Phenylmethyl)oxy]-4-(1-piperidinylcarbonyl)-N-3-pyridinyl-5-(trifluoromethyl)benzamide]",316,≤ 316
–,≤ 1260,"O=C(Nc1ccnnc1)c1cc(C(F)(F)F)c(C(=O)N2CCCCC2)cc1OCc1ccccc1 [Example 40, 2-[(Phenylmethyl)oxy]-4-(1-piperidinylcarbonyl)-N-4-pyridazinyl-5-(trifluoromethyl)benzamide]",–,≤ 25100
–,≤ 100,"O=C(Nc1ccnnc1)c1cc(Cl)c(C(=O)N2CCOCC2)cc1OCc1ccccc1 [Example 46, 5-Chloro-4-(4-morpholinylcarbonyl)-2-[(phenylmethyl)oxy]-N-4-pyridazinylbenzamide]",–,≤ 25100
